Test results: US8609836B2, “4-aryl-2-anilino-pyrimidines” (Janssen Pharmaceutica NV, priority 2008, dated 2013)

Key:
PLK1 T210D (h) = PLK1 T210D (h) (Homo sapiens, UniProt P53350, T210D); assay: PLK1 human kinase inhibition, SPA; assay type: biochemical; details: read-out: PLK1 pIC50 (converted)
How it was run: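 Kinase incubated 40 min at room temperature with 0.1 μM ATP (2 nM [γ-33P]ATP tracer), 2 μM biotinylated peptide, pH 8.0 Hepes buffer with 2 mM MnCl2 and 1 mM DTT; enzyme at 0.125 ng/ml. Stopped with EDTA; 33P-peptide bound to streptavidin scintillant beads and imaged.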

U87-MG = assay: Cellular proliferation assay (Alamar blue), U87-MG; assay type: cell-based; details: Homo sapiens, U-87 MG; 10% FCS; 72 hours with compound; Alamar blue 6 h; read-out: U87-MG (cellular proliferation assay, Table 4) (converted)
How it was run: (§1)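 After a 24 h compound-free attachment period, cells in 10% FCS medium are treated for 72 h at 37° C. Resazurin conversion is then quantified by fluorescence, with dye incubation lasting 4 h for HCT-116, 6 h for U87-MG and 24 h for A2780 or MDA-MB-231.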

H1299 = assay: Cellular proliferation assay (Alamar blue), H1299; assay type: cell-based; details: Homo sapiens, NCI-H1299; 10% FCS; 72 hours with compound; Alamar blue 4 h
How it was run: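 This proliferation assay on NCI-H1299 cells used an initial 24-hour compound-free incubation after seeding, followed by 72 hours of compound treatment with 10% FCS serum at 37° C. and 5% (v/v) CO2. Viable cells were quantified by a 4 h Alamar blue incubation and fluorescent plate reading at 544 nm/590 nm, and effects were expressed relative to control cells.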

CDK4/CyclinD1 (h) = CDK4/CyclinD1 (h) (Homo sapiens, UniProt P11802); assay: CDK4/CyclinD1 human kinase inhibition, SPA with GST-pRb substrate; assay type: biochemical; details: read-out: CDK4 pIC50 (converted)
Sequence of CDK4/CyclinD1 (h) (P11802 whole entry): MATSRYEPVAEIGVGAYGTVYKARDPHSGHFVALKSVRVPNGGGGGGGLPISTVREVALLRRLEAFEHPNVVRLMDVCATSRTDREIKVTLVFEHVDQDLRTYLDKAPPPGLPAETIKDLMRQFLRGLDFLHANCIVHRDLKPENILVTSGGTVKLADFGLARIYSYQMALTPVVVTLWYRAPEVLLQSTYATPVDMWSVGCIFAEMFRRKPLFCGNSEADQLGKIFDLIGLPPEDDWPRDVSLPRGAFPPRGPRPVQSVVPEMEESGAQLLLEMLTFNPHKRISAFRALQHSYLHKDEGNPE
Sequence of CDK4/CyclinD1 (h) (P24385 whole entry partner): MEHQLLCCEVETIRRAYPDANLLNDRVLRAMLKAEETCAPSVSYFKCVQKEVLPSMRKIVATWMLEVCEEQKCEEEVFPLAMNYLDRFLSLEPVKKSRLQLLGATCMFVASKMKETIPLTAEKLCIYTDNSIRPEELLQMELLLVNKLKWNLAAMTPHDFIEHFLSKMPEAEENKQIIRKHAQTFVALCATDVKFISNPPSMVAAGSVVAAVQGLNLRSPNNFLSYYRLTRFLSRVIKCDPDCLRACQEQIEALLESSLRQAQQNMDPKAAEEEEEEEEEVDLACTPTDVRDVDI
How it was run: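 Scintillation proximity format: after EDTA/Triton stop containing glutathione SPA beads, 33P incorporation was counted. The reaction ran 60 min at room temperature in Hepes pH 7.5 with NaF, MgCl2, DTT, using 2.5 μg/ml human CDK4/CyclinD1, 40 μg/ml GST-pRb substrate and 2 nM [γ-33P]ATP.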

GSK3β (h) = GSK3β (h) (Homo sapiens, UniProt P49841); assay: GSK-3β human kinase inhibition, SPA; assay type: biochemical; details: read-out: GSK3b pIC50 (converted)
Sequence of GSK3β (h) (P49841 whole entry): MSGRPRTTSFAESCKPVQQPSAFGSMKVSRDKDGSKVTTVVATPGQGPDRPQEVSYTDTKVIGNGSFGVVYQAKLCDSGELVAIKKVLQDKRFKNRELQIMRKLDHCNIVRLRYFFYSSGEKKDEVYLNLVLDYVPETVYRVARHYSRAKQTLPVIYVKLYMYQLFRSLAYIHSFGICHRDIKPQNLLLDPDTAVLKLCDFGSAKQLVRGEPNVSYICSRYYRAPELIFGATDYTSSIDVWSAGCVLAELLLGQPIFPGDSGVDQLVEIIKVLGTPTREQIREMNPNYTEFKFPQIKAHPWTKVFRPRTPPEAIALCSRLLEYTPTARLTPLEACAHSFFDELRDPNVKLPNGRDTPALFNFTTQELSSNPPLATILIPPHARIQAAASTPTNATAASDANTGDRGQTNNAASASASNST
How it was run: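 Radiometric: 33P-labelled peptide captured on streptavidin SPA beads after EDTA stop and imaged on Leadseeker. Reaction ran 1 h at RT, 1 μM cold ATP with 2 nM [γ-33P]ATP, 1 μM biotin-peptide substrate, human GSK3β 1 μg/ml, pH 7.4 Tris buffer.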

MDA-MB-231 = assay: Cellular proliferation assay (Alamar blue), MDA-MB-231; assay type: cell-based; details: Homo sapiens, 10% FCS, 72 hours with compound, Alamar blue 24 h, read-out: MDA/MB231 (cellular proliferation assay, Table 4) (converted)
How it was run: as §1

HCT-116 = assay: Cellular proliferation assay (Alamar blue), HCT-116; assay type: cell-based; details: Homo sapiens, 10% FCS, 72 hours with compound, Alamar blue 4 h
How it was run: as §1

A2780 = assay: Cellular proliferation assay (Alamar blue), A2780; assay type: cell-based; details: Homo sapiens, 10% FCS, 72 hours with compound, Alamar blue 24 h, read-out: A2780 (cellular proliferation assay, Table 4) (converted)
How it was run: as §1

PLK2 (h) = PLK2 (h) (Homo sapiens, UniProt Q9NYY3); assay: PLK2 human kinase inhibition, SPA; assay type: biochemical; details: read-out: PLK2 pIC50 (converted)
Sequence of PLK2 (h) (Q9NYY3 whole entry): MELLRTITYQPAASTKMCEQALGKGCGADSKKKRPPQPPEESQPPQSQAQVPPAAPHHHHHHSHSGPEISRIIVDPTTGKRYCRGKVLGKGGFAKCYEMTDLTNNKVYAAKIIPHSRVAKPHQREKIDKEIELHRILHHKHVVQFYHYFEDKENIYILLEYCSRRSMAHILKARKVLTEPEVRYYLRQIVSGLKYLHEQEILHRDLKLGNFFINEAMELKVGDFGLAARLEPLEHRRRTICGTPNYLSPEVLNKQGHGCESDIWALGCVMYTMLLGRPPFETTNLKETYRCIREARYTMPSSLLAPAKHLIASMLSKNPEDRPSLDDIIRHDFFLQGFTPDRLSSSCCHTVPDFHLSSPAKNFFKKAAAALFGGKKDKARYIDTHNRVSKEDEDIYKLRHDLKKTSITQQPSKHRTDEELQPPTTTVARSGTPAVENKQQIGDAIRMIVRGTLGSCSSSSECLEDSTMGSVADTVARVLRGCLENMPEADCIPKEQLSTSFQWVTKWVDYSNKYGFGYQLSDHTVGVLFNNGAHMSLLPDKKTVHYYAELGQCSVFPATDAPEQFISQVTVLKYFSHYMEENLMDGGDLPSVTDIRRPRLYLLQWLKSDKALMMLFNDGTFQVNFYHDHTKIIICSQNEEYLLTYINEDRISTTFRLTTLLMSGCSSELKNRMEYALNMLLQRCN
How it was run: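 33P incorporation into a biotinylated peptide (2 μM) was captured on streptavidin PVT beads and imaged on Leadseeker. Enzyme at 30 μg/ml, ATP 0.1 μM with 2 nM [γ-33P]ATP, Hepes pH 8.0 with MnCl2 and DTT. Incubation was 20 min at room temperature.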

PLK4 (h) = PLK4 (h) (Homo sapiens, UniProt O00444); assay: PLK-4 human kinase inhibition, scintillation proximity assay (SPA); assay type: biochemical; details: read-out: PLK4 pIC50 (converted)
Sequence of PLK4 (h) (O00444 whole entry): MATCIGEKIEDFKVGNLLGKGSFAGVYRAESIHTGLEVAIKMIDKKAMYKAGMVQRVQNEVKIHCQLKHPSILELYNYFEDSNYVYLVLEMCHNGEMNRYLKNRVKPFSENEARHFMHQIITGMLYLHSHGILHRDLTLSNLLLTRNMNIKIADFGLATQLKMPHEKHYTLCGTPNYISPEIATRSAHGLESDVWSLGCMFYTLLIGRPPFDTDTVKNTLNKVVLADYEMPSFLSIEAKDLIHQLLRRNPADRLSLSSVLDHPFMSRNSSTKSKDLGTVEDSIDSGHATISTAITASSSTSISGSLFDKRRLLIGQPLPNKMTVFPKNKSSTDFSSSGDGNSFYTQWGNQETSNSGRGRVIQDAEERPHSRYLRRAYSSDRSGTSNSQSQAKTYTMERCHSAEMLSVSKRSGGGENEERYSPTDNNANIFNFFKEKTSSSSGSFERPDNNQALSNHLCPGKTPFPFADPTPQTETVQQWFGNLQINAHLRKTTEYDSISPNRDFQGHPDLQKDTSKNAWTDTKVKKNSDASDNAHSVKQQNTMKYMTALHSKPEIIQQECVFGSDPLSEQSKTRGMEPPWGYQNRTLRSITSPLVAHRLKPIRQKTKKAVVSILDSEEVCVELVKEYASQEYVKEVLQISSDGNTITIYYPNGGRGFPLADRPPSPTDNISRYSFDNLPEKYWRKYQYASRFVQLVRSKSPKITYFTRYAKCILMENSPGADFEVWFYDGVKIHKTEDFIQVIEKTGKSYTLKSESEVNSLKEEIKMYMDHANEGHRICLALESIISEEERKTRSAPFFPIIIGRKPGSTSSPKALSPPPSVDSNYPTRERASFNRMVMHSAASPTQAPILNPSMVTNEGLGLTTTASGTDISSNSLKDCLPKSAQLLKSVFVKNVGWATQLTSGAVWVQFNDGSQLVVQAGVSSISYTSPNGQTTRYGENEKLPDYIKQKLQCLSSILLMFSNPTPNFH

Sequence of PLK1 T210D (h) (P53350 whole entry T210D): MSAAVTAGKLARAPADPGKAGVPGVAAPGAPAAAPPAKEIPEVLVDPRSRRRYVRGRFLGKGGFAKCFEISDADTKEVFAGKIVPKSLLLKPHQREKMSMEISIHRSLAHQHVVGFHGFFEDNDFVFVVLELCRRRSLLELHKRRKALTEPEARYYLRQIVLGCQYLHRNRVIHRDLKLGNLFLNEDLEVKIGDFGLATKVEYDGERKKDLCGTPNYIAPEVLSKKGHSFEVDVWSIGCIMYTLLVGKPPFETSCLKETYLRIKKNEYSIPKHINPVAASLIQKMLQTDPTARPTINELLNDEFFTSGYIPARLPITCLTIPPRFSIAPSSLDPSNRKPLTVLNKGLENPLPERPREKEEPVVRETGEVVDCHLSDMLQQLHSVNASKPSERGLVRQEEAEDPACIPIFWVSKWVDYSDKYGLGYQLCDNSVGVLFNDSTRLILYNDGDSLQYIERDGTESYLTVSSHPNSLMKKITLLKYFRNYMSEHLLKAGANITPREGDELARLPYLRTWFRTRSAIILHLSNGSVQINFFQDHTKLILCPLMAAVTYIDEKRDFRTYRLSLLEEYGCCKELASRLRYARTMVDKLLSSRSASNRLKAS

Structure (SMILES) | IC50 (PLK1 T210D (h)) [µM] | IC50 (U87-MG) [µM] | IC50 (H1299) [µM] | IC50 (CDK4/CyclinD1 (h)) [µM] | IC50 (GSK3β (h)) [µM] | IC50 (MDA-MB-231) [µM] | IC50 (HCT-116) [µM] | IC50 (A2780) [µM] | IC50 (PLK2 (h)) [µM] | IC50 (PLK4 (h)) [µM]
COc1ccc2cc1CN(C)CCNC(=O)CN1CCN(CC1)Cc1cc(NCCc3ccccc3)cc(c1)Nc1nccc-2n1 [Compound 138] | > 10 | 3.24 | 10 | > 10 | > 10 | 5.89 | 3.09 | 5.5 | > 3.02 | 2.14
COc1cc2cc(c1)Nc1nccc(n1)-c1ccc(OC)c(c1)CN(C)CCCNC(=O)CN1CCN(CC1)C2 [Compound 140] | > 10 | 4.07 | > 10 | > 10 | 7.41 | > 10 | 1.55 | > 10 | > 10 | 2.69
O=C1NCc2cc(ccc2N2CCOCC2)Nc2nccc(n2)-c2cccc(c2)CCCN2CCC[C@@H]12 [Compound 149] | > 10 | 0.251 | 0.832 | 0.0724 | 0.117 | 0.501 | 0.117 | 0.245 | > 10 | 0.813
CC(C)Nc1cc2cc(c1)Nc1nccc(n1)-c1ccc(cc1)CN(C)CCCNC(=O)[C@@H]1CCCN1C2 [Compound 151] | > 10 | 7.59 | > 10 | > 10 | > 10 | > 10 | 3.55 | > 10 | > 3.02 | 0.646
COc1ccc2cc1CN(C)CCNC(=O)[C@@H]1CCCN1Cc1cc(cc(N3CCOCC3)c1)Nc1nccc-2n1 [Compound 152] | > 10 | > 10 | > 10 | > 10 | 5.13 | > 10 | > 10 | > 10 | > 10 | 0.692
CN1CCNC(=O)[C@@H]2CCCN2Cc2cc(cc(N3CCOCC3)c2)Nc2nccc(n2)-c2ccc(cc2)C1 [Compound 154] | > 10 | > 10 | > 10 | > 10 | > 10 | > 10 | > 10 | > 10 | > 3.02 | 0.813
COc1cc2cc(c1)Nc1nccc(n1)-c1ccc(cc1)CN(C)CCCNC(=O)[C@@H]1CCCN1C2 [Compound 156] | > 10 | > 10 | > 10 | > 10 | > 10 | > 10 | > 10 | > 10 | > 3.02 | 0.912
O=C1NCCNCc2ccc(cc2)-c2ccnc(n2)Nc2ccc(N3CCOCC3)c(c2)CN2CCC[C@@H]12 [Compound 157] | > 10 | > 10 | 5.13 | > 10 | 6.61 | > 10 | 6.46 | 6.46 | > 10 | 1.07
COc1cc2cc(c1)Nc1nccc(n1)-c1ccc(cc1)CN(C)CCNC(=O)[C@@H]1CCCN1C2 [Compound 158] | > 10 | > 10 | > 10 | > 10 | > 10 | > 10 | > 10 | > 10 | > 3.02 | 1.15
CN1CCNC(=O)[C@@H]2CCCN2Cc2cccc(c2)Nc2nccc(n2)-c2ccc(cc2)C1 [Compound 160] | > 10 | > 10 | > 10 | > 10 | 5.5 | > 10 | > 10 | > 10 | > 3.02 | 1.55
COc1cc2cc(c1)Nc1nccc(n1)-c1ccc(OC)c(c1)CN(C)CCNC(=O)[C@@H]1CCCN1C2 [Compound 162] | > 10 | > 10 | > 10 | > 10 | 8.32 | > 10 | > 10 | > 10 | > 3.02 | 2.04
COc1ccc2cc1CN(C)CCNC(=O)[C@@H]1CCCN1Cc1cc(NCCc3ccccc3)cc(c1)Nc1nccc-2n1 [Compound 163] | > 10 | 6.92 | > 10 | > 10 | > 10 | > 10 | 4.17 | 6.61 | > 10 | 2.45
COc1ccc2cc1CN(C)CCNC(=O)[C@@H]1CCCN1Cc1cc(cc(NC(C)C)c1)Nc1nccc-2n1 [Compound 165] | > 10 | 6.17 | > 10 | > 10 | > 10 | > 10 | 5.62 | > 10 | > 10 | 2.82
COc1ccc2cc1CN(C)CCCNC(=O)[C@@H]1CCCN1Cc1cc(NCCc3ccccc3)cc(c1)Nc1nccc-2n1 [Compound 167] | > 10 | 3.72 | > 10 | > 10 | > 10 | 6.46 | 2.24 | 2.75 | > 10 | 3.55
CN1CCN(C)c2ccc(cn2)-c2ccnc(n2)Nc2cc(c3c(c2)OCO3)CN2CCC[C@H]2C1=O [Compound 168] | > 10 | 6.76 | > 10 | 2.14 | 1.45 | > 10 | > 10 | > 10 | > 10 | 3.55
COc1cc2cc(c1)Nc1nccc(n1)-c1ccc(OC)c(c1)CN(C)CCCNC(=O)[C@@H]1CCCN1C2 [Compound 171] | > 10 | 6.17 | > 10 | > 10 | > 10 | > 10 | 6.61 | > 10 | > 10 | 5.01
COc1ccc2cc1CN(C)CCNC(=O)[C@@H]1CCCN1Cc1cc(C#N)cc(c1)Nc1nccc-2n1 [Compound 181] | > 10 | 9.12 | > 10 | > 10 | > 10 | > 10 | 4.9 | > 10 | > 10 | > 10
C[C@@H]1NCc2cc(ccc2N2CCOCC2)Nc2nccc(n2)-c2cccc(c2)CNC1=O [Compound 182] | > 10 | > 10 | > 10 | 6.03 | 0.661 | > 10 | > 10 | > 10 | > 10 | 0.692
C[C@@H]1NCc2cccc(c2)Nc2nccc(n2)-c2cccc(c2)CNC1=O [Compound 184] | > 10 | > 10 | 9.77 | 1.17 | 0.102 | > 10 | 5.37 | 5.01 | > 10 | 0.776
O=C1NCc2cccc(c2)-c2ccnc(n2)Nc2cccc(c2)CN[C@H]1Cc1ccccc1 [Compound 185] | > 10 | 6.76 | 2.63 | > 10 | 0.0275 | > 10 | 6.92 | > 10 | > 10 | 0.794
